A short description of assay [1]: Electrospray ionization mass spectrometry: biotin molecules bound per streptavidin tetramer. Type of assay: binding. The note with it: for # biotins (bound to each tetramer): from mass change upon addition of biotin, 30 μM protein, 200 μM biotin; for biotin binding per tetramer by mass spectrometry (in words): spectra with or without biotin. The procedure:
Biospin columns (Bio-Rad) were equilibrated by spinning 5 times in 500 μL of 15 mM ammonium acetate pH 7.8 at 1000 g for 2 min. Then 30-50 μL of 30 μM protein in PBS was buffer-exchanged into 15 mM ammonium acetate pH 7.8 using the pre-equilibrated Biospin columns by spinning for 20 s at 1000 g. To ensure that PBS was completely removed, the flow-through was again buffer-exchanged with a second pre-equilibrated column for 20 s. This procedure also removed free biotin when the starting 30 μM streptavidin forms were incubated with 200 μM biotin. Less than 2 min before introducing into the mass spectrometer, the buffer-exchanged samples were diluted with a solution of 1:1 15 mM ammonium acetate pH 7.8 and 78% acetonitrile, 0.01% trifluoroacetic acid.
(§1) An Advion nanospray robot (Advion BioSystems, Ithica, N.Y.) with a back-pressure of 0.45 Psi introduced the samples into the mass spectrometer, an 8.5 Tesla custom-built Electrospray Ionisation-Fourier Transform Mass Spectrometer. To visualize the non-covalent tetramers and non-covalent biotin binding in the high m/z range, the following settings were used: Chirp rate=750 Hz, Amplitude=0.5 V p-p, Tube lens=200 V, Capillary heater 2 V, Quad filter=−20 V, Skimmer=0 V, Capillary offset=34 V, X-fer=−110 V, Leak gas=4.2×10^−5 Torr. The capillary heater was kept low and the Quad filter and Skimmer were kept either high or off to prevent subunit dissociation. The transfer was set to this low value of −110 V in order to visualize the high m/z region.
The masses were calculated manually by first determining the charge state. The final mass was determined by multiplying the observed m/z by the charge and subtracting the mass corresponding to the addition of protons to give that charge. For example, for the 15+charge state of D4 an m/z of 3534.159 was obtained. (15×3534.159)-(15×1.00727) gave a mass for this ion of 52,997 Da. This calculation was repeated for each charge state and the mean and standard deviation reported. The spectra were calibrated with tetrameric streptavidin, after its monomer mass was determined under denaturing conditions (Mr=13,271.4 Da). Average masses were predicted from the DNA sequence, using the ExPASy PeptideMass Calculator (ca.expasy.org/tools/peptide-mass.html) and assuming removal of the N-terminal formyl-Methionine.
The different tetramers were purified using a Ni-nitrilotriacetic acid (NTA) column, eluting according to the number of His6-tags with increasing concentrations of imidazole. […] The tetramer composition was further confirmed by boiling the samples before loading on SDS-PAGE, to determine the ratio of A to D subunits (FIG. 1D), and by electrospray ionization mass spectrometry. In Table 1 (Schwartz, B. L. et al., J. of the Amer. Soc. for Mass Spec. 6: 459-465, 1995) the observed mass (±s.d.), determined by Electrospray Ionization-Mass Spectrometry, is compared to the mass predicted from the sequence. From the change (±s.e.m.) upon addition of biotin (mass 244.31), we determined how many biotin molecules were bound to each tetramer.
Electrospray ionization mass spectrometry was used to characterize the number of biotin molecules bound per tetramer. Spectra of the different streptavidin tetramers with or without biotin were acquired. […] The other chimeric tetramers bound one biotin per A subunit.

Assay [2] is described as follows: Electrospray ionization mass spectrometry: biotin molecules bound per avidin tetramer. Type of assay: binding. The settings on record: spectra with or without biotin. As for the experimental part: Biospin columns (Bio-Rad) are equilibrated by spinning 5 times in 500 μL of 15 mM ammonium acetate pH 7.8 at 1000 g for 2 min. Then 30-50 μL of 30 μM protein in PBS is buffer-exchanged into 15 mM ammonium acetate pH 7.8 using the pre-equilibrated Biospin columns by spinning for 20 s at 1000 g. To ensure that PBS is completely removed, the flow-through is again buffer-exchanged with a second pre-equilibrated column for 20 s. This procedure also removes free biotin when the starting 30 μM avidin forms are incubated with 200 μM biotin. Less than 2 min before introducing into the mass spectrometer, the buffer-exchanged samples are diluted with a solution of 1:1 15 mM ammonium acetate pH 7.8 and 78% acetonitrile, 0.01% trifluoroacetic acid.
as §1, with “introduces” for “introduced”, “are” for “were”, “is” for “was”
The masses are calculated manually by first determining the charge state. The final mass is determined by multiplying the observed m/z by the charge and subtracting the mass corresponding to the addition of protons to give that charge. This calculation is repeated for each charge state and the mean and standard deviation reported. The spectra are calibrated with tetrameric avidin, after its monomer mass is determined under denaturing conditions. […]

As for “D4: Streptavidin tetramer with 4 dead subunits (D: N23A, S27D, S45A, SEQ ID NO:3) [Tetramer D4]”, in assay [1], the “# biotins (bound to each tetramer)” value is listed as 0 and the “biotin binding per tetramer by mass spectrometry (in words)” value is recorded as “No biotin binding”. Moreover, the “biotin binding per avidin tetramer by mass spectrometry (in words)” value in assay [2] was “No biotin binding”.
Turning to “A1D3: Monovalent streptavidin tetramer: one His6-tagged wild-type (A) subunit and three dead (D) subunits [Tetramer A1D3]”, in assay [1], the “# biotins (bound to each tetramer)” value is recorded as 1 and the “biotin binding per tetramer by mass spectrometry (in words)” value is recorded as “single biotin”. The “biotin binding per avidin tetramer by mass spectrometry (in words)” value in assay [2] is given as “single biotin”.

Source of the values: patent US20070105162A1, “Monovalent avidin and streptavidin compositions” (Massachusetts Institute of Technology, priority 2005, published 2007).
